# Test results from US10329289B2, “6,7-dihydro-5H-pyrrolo[3,4-B]pyridin-5-one allosteric modulators of the M4 muscarinic acetylcholine receptor” (Merck Sharp & Dohme Corp., priority 2015, dated 2019).
# Molecular target: T1, human M4 muscarinic acetylcholine receptor (Homo sapiens, UniProt P08173)
# T1 construct: expressed in transfected cells; host or cells: CHO-K1
# T1 sequence (P08173 1-479): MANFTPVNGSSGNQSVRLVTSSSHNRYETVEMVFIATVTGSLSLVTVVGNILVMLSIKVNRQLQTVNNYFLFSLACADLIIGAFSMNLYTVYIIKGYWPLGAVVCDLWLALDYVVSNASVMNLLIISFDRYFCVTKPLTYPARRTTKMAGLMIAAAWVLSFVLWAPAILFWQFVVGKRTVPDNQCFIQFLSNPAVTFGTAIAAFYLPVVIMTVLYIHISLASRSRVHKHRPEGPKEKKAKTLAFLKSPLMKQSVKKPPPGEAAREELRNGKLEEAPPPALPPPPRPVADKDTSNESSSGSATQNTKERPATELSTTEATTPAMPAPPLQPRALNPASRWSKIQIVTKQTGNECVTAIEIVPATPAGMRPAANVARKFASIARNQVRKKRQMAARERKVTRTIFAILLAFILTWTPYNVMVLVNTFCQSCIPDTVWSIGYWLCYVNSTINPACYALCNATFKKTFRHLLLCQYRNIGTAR
# Assay: human FLIPR-based M4 PAM assay (Ca2+ mobilization, CHO-K1 cells with human M4 receptor and Gαqi5)
# Type: cell-based
# Conditions: acetylcholine at 20% of maximum response, read-out: M4 PAM IP
# Outline: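 Calcium-mobilization (FLIPR) readout in dye-loaded CHO-K1 cells co-expressing human M4 receptor and Gαqi5. Potentiation measured against acetylcholine at a concentration giving 20% of maximal response, with an optional 70% addition; the reported value is the curve inflection point from a 4-parameter logistic fit.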
row,Compound,EC50
1,"Cc1cc2c(nc1N1CCC(Oc3ccc4c(c3)CCCN4)CC1)CNC2=O [Example 22, 3-methyl-2-(4-((1,2,3,4-tetrahydroquinolin-6-yl)oxy)piperidin-1-yl)-6,7-dihydro-5H-pyrrolo[3,4-b]pyridin-5-one]",32 nM
2,"Cc1cc2c(nc1N1CCC(Oc3ccc4[nH]ccc4c3)CC1)CNC2=O [Example 26, 2-(4-((1H-indol-5-yl)oxy)piperidin-1-yl)-3-methyl-6,7-dihydro-5H-pyrrolo[3,4-b]pyridin-5-one]",28 nM
3,"Cc1cc2c(nc1N1CCC(Oc3cccc(C#N)c3)CC1)[C@@H](C)N(C)C2=O [Example 28A, (R)-3-((1-(3,6,7-trimethyl-5-oxo-6,7-dihydro-5H-pyrrolo[3,4-b]pyridin-2-yl)piperidin-4-yl)oxy)benzonitrile]",84 nM
4,"Cc1cc2c(nc1N1CCC(Oc3cccc(C#N)c3)CC1)[C@H](C)N(C)C2=O [Example 28B, (S)-3-((1-(3,6,7-trimethyl-5-oxo-6,7-dihydro-5H-pyrrolo[3,4-b]pyridin-2-yl)piperidin-4-yl)oxy)benzonitrile]",1980 nM
5,"COc1ccc(O[C@@H]2CCN(c3nc4c(cc3C)C(=O)N(C)C4)C[C@@H]2F)cn1 [Example 33, 2-((3S,4R)-3-fluoro-4-((6-methoxypyridin-3-yl)oxy)piperidin-1-yl)-3,6-dimethyl-6,7-dihydro-5H-pyrrolo[3,4-b]pyridin-5-one]",22 nM
6,"CCOc1ccc(OC2CCN(c3nc4c(cc3C)C(=O)NC4)CC2)cn1 [Example 34, 2-(4-((6-ethoxypyridin-3-yl)oxy)piperidin-1-yl)-3-methyl-6,7-dihydro-5H-pyrrolo[3,4-b]pyridin-5-one]",26 nM
7,"Cc1cc2c(nc1N1CCC(OCC3(C#N)CC3)CC1)CNC2=O [Example 36, 1-(((1-(3-methyl-5-oxo-6,7-dihydro-5H-pyrrolo[3,4-b]pyridin-2-yl)piperidin-4-yl)oxy)methyl)cyclo-propane-1-carbonitrile]",302 nM
8,"Cc1cc2c(nc1N1CCC(Oc3ccc(OC4CCC4)nc3)CC1)CNC2=O [Example 37, 2-(4-((6-cyclobutoxypyridin-3-yl)oxy)piperidin-1-yl)-3-methyl-6,7-dihydro-5H-pyrrolo[3,4-b]pyridin-5-one]",172 nM
9,"Cc1cc2c(nc1N1CCC(Oc3ccc4c(c3)COC4)CC1)CN(C)C2=O [Example 38, 2-(4-((1,3-dihydro-2-benzofuran-5-yl)oxy)piperidin-1-yl)-3,6-dimethyl-6,7-dihydro-5H-pyrrolo[3,4-b]pyridin-5-one]",30 nM
10,"Cc1cc2c(nc1N1CCC(OC3CCOC3)CC1)CNC2=O (centres unmarked) [Example 41, 3-methyl-2-(4-((tetrahydrofuran-3-yl)oxy)piperidin-1-yl)-6,7-dihydro-5H-pyrrolo[3,4-b]pyridin-5-one]",11300 nM
11,"Cc1cc2c(nc1N1CCC(OC3CCOCC3)CC1)CNC2=O [Example 42, 3-methyl-2-(4-((tetrahydro-2H-pyran-4-yl)oxy)piperidin-1-yl)-6,7-dihydro-5H-pyrrolo[3,4-b]pyridin-5-one]",1730 nM
12,"Cc1cc2c(nc1N1CC[C@@H](Oc3cccc(C#N)c3)[C@H](O)C1)CNC2=O [Example 43A, 3-(((3R,4R)-3-hydroxy-1-(3-methyl-5-oxo-6,7-dihydro-5H-pyrrolo[3,4-b]pyridin-2-yl)piperidin-4-yl)oxy)benzonitrile]",155 nM
13,"Cc1cc2c(nc1N1CC[C@H](Oc3cccc(C#N)c3)[C@@H](O)C1)CNC2=O [Example 43B, 3-(((3S,4S)-3-hydroxy-1-(3-methyl-5-oxo-6,7-dihydro-5H-pyrrolo[3,4-b]pyridin-2-yl)piperidin-4-yl)oxy)benzonitrile]",367 nM
14,"Cc1cc2c(nc1N1CCC(Oc3ccc4c(c3)CCC4)CC1)CNC2=O [Example 44, 2-(4-((2,3-dihydro-1H-inden-5-yl)oxy)piperidin-1-yl)-3-methyl-6,7-dihydro-5H-pyrrolo[3,4-b]pyridin-5-one]",130 nM
15,"Cc1cc2c(nc1N1CC[C@@H](Oc3cccc(C#N)c3)[C@@H](F)C1)CN(C)C2=O [Example 45, 3-(((3S,4R)-1-(3,6-dimethyl-5-oxo-6,7-dihydro-5H-pyrrolo[3,4-b]pyridin-2-yl)-3-fluoropiperidin-4-yl)oxy)benzonitrile]",53 nM
16,"Cc1cc2c(nc1N1CC[C@@H](Oc3ccc4c(c3)COC4)[C@@H](F)C1)CN(C)C2=O [Example 46, 2-((3S,4R)-4-((1,3-dihydro-2-benzofuran-5-yl)oxy)-3-fluoropiperidin-1-yl)-3,6-dimethyl-6,7-dihydro-5H-pyrrolo[3,4-b]pyridin-5-one]",32 nM
17,"COc1ccc(OC2CCN(c3nc4c(cc3C)C(=O)NC4)CC2)cc1 [Example 47, 2-(4-(4-methoxyphenoxy)piperidin-1-yl)-3-methyl-6,7-dihydro-5H-pyrrolo[3,4-b]pyridin-5-one]",41 nM
18,"Cc1cc2c(nc1N1CCC(Oc3cccc(S(C)(=O)=O)c3)CC1)CNC2=O [Example 47A, 3-methyl-2-(4-(3-(methylsulfonyl)phenoxy)piperidin-1-yl)-6,7-dihydro-5H-pyrrolo[3,4-b]pyridin-5-one]",287 nM
19,"Cc1cc2c(nc1N1CCC(Oc3cnc4c(c3)COC4)CC1)CNC2=O [Example 48, 2-(4-((5,7-dihydrofuro[3,4-b]pyridin-3-yl)oxy)piperidin-1-yl)-3-methyl-6,7-dihydro-5H-pyrrolo[3,4-b]pyridin-5-one]",61 nM

# The next lines start with the values.
row,EC50,Compound
1,50 nM,"Cc1cc2c(nc1N1CC[C@@H](Oc3cccc(C#N)c3)[C@H](F)C1)CNC2=O [Example 21, 3-(((3R,4R)-3-fluoro-1-(3-methyl-5-oxo-6,7-dihydro-5H-pyrrolo[3,4-b]pyridin-2-yl)piperidin-4-yl)oxy)benzonitrile]"
2,70 nM,"Cc1cc2c(nc1N1CC[C@H](Oc3ccc4c(cnn4C)c3)[C@H](F)C1)CNC2=O [Example 23, 2-((3R,4S)-3-fluoro-4-((1-methyl-1H-indazol-5-yl)oxy)piperidin-1-yl)-3-methyl-6,7-dihydro-5H-pyrrolo[3,4-b]pyridin-5-one]"
3,167 nM,"Cc1cc2c(nc1N1CC[C@H](Oc3ccc4c(cnn4C)c3)[C@@H](F)C1)CNC2=O [Example 24, 2-((3S,4S)-3-fluoro-4-((1-methyl-1H-indazol-5-yl)oxy)piperidin-1-yl)-3-methyl-6,7-dihydro-5H-pyrrolo[3,4-b]pyridin-5-one]"
4,75 nM,"Cc1cc2c(nc1N1CC[C@@H](Oc3ccc4c(cnn4C)c3)[C@H](F)C1)CNC2=O [Example 25, 2-((3R,4R)-3-fluoro-4-((1-methyl-1H-indazol-5-yl)oxy)piperidin-1-yl)-3-methyl-6,7-dihydro-5H-pyrrolo[3,4-b]pyridin-5-one]"
5,43 nM,"Cc1cc2c(nc1N1CCC(Oc3ccc4c(ccn4C)c3)CC1)CNC2=O [Example 27, 3-methyl-2-(4-((1-methyl-1H-indol-5-yl)oxy)piperidin-1-yl)-6,7-dihydro-5H-pyrrolo[3,4-b]pyridin-5-one]"
6,63 nM,"COc1ccc(O[C@@H]2CCN(c3nc4c(cc3C)C(=O)NC4)C[C@@H]2C)cn1 [Example 29A, 2-((3S,4R)-4-((6-methoxypyridin-3-yl)oxy)-3-methylpiperidin-1-yl)-3-methyl-6,7-dihydro-5H-pyrrolo[3,4-b]pyridin-5-one]"
7,30000 nM,"COc1ccc(O[C@H]2CCN(c3nc4c(cc3C)C(=O)NC4)C[C@H]2C)cn1 [Example 29B, 2-((3R,4S)-4-((6-methoxypyridin-3-yl)oxy)-3-methylpiperidin-1-yl)-3-methyl-6,7-dihydro-5H-pyrrolo[3,4-b]pyridin-5-one]"
8,25 nM,"COc1ccc(O[C@@H]2CCN(c3nc4c(cc3C)C(=O)NC4)C[C@H]2F)cn1 [Example 30, 2-((3R,4R)-3-fluoro-4-((6-methoxypyridin-3-yl)oxy)piperidin-1-yl)-3-methyl-6,7-dihydro-5H-pyrrolo[3,4-b]pyridin-5-one]"
9,42 nM,"Cc1cc2c(nc1N1CC[C@@H](Oc3ccc4c(cnn4C)c3)[C@@H](F)C1)CN(C)C2=O [Example 31, 2-((3S,4R)-3-fluoro-4-((1-methyl-1H-indazol-5-yl)oxy)piperidin-1-yl)-3,6-dimethyl-6,7-dihydro-5H-pyrrolo[3,4-b]pyridin-5-one]"
10,37 nM,"Cc1cc2c(nc1N1CCC(Oc3ccc4c(cnn4C)c3)CC1)CN(C)C2=O [Example 32, 3,6-dimethyl-2-(4-((l-methyl-1H-indazol-5-yl)oxy)piperidin-1-yl)-6,7-dihydro-5H-pyrrolo[3,4-b]pyridin-5-one]"
11,24 nM,"Cc1cc2c(nc1N1CC[C@@H](Oc3ccccc3)[C@@H](F)C1)CNC2=O [Example 35, 2-((3S,4R)-3-fluoro-4-phenoxypiperidin-1-yl)-3-methyl-6,7-dihydro-5H-pyrrolo[3,4-b]pyridin-5-one]"
12,1600 nM,"Cc1cc2c(nc1N1CC[C@@H](Oc3cccc4c3COC4)[C@@H](F)C1)CNC2=O [Example 39, 2-((3S,4R)-4-((1,3-dihydro-2-benzofuran-4-yl)oxy)-3-fluoropiperidin-1-yl)-3-methyl-6,7-dihydro-5H-pyrrolo[3,4-b]pyridin-5-one]"
13,17 nM,"Cc1cc2c(nc1N1CC[C@@H](Oc3ccc4c(c3)COC4)[C@@H](F)C1)CNC2=O [Example 40, 2-((3S,4R)-4-((1,3-dihydro-2-benzofuran-5-yl)oxy)-3-fluoropiperidin-1-yl)-3-methyl-6,7-dihydro-5H-pyrrolo[3,4-b]pyridin-5-one]"
